Measurements reported in patent US5750782A, “Nitroaniline derivatives and their use as anti-tumour agents” (priority 1996, dated 1998).

How the values were obtained:
[1] = test system: UV4 cells; test: Clonogenic assay, UV4 cells (CT10), aerobic and hypoxic; type: cell-based; details: for CT10 ratio (air/N2): UV4 cells, aerobic CT10/hypoxic CT10; for CT10 (UV4): air, concentration x time to reduce UV4 cell survival to 10% of control
From the text: The product (in μM-hr) of the drug concentration times the exposure time to reduce cell survival to 10% of control values in the clonogenic assay.
Ratio of CT10 values after exposure of UV4 cells as detailed above under either aerobic (air) or hypoxic (N2) conditions (=aerobic CT10 /hypoxic CT10).

[2] = test system: UV4 cell line; test: Ratio of IC50 values against UV4 cell line in presence and absence of E. coli nitroreductase enzyme NTR-2; type: cell-based; details: air, ratio of IC50 in presence and absence of E. coli nitroreductase NTR-2, 1080 min
Experimental: (§1) Growth inhibition studies were performed as described in detail elsewhere (W.R. Wilson, R.F. Anderson and W.A Denny. J Med. Chem., 1989, 32, 23; G.J. Finlay, B.C. Baguley and W.R. Wilson. Anal Biochem., 1984, 139, 172.), using 200 viable AA8 or 300 viable UV4 cells plus 5000 lethally-irradiated AA8 feeder cells per well in 96-well tissue culture dishes. AA8 and UV4 cells were maintained in logarithmic-phase growth in […] tissue culture flasks with subculture twice weekly by trypsinization. The growth medium was antibiotic-free α-MEM with 10% v/v heat-inactivated ([…], 40 min) fetal calf serum. Doubling times were approximately 14h for AA8 and 15h for UV4 cells.
Ratio of IC50 values for a compound after exposure as detailed above against the UV4 cell line in the presence and absence of the E. coli nitroreductase enzyme NTR-2.

[3] = test system: AA8; test: Growth inhibition (IC50), AA8 cells, aerobic; type: cell-based; details: 18 h exposure
Experimental: as §1

[4] = test system: UV4; test: Growth inhibition (IC50), UV4 cells, aerobic; type: cell-based; details: air, 18 h exposure
Experimental: as §1

[5] = test system: AA8 and UV4 cell lines; test: Ratio of IC50 values against AA8 and UV4 cell lines (HFair); type: cell-based; details: 18 h exposure
Experimental: as §1
Ratio of IC50 values for a compound after exposure as detailed above against AA8 and UV4 cell lines (HF=IC50 (AA8)/IC50 (UV4)).

[6] = test system: V79 cells; details: +Nitroreductase alone (2 μg/ml); 2 h, 37° C
Experimental: The nitroreductase concentration was 2 μg/ml and NADH was used as a co-factor. The initial cell density was 2×10^5 /mL.

| Molecule | CT10 ratio (air/N2) [1] | CT10 (UV4) [1] | HF (NR-2) [2] | IC50 ([3]; air) | IC50 [4] | HF (air) = IC50 (AA8)/IC50 (UV4) [5] | IC50 ([3]; Cricetulus griseus, CHO-AA8, air) | IC50 ([4]; Cricetulus griseus) | % SURVIVAL [6] |
| --- | --- | --- | --- | --- | --- | --- | --- | --- | --- |
| N#Cc1cc(N(CCCl)CCCl)c([N+](=O)[O-])cc1[N+](=O)[O-] [Compound 7, 5-[N,N-bis(2-chloroethyl)aminol]-2,4-dinitrobenzonitrile] | 8.5 | 86 μM-h | 9.2 | 24 µM | 2.3 µM | 6.8 | – | – | – |
| CN(C)CCNC(=O)c1cc([N+](=O)[O-])c(N(CCCl)CCCl)c([N+](=O)[O-])c1 [Compound 24, N-(N,N-dimethylaminoethyl) 4-[N,N-bis(2-chloroethyl)amino]-3,5-dinitrobenzamide] | > 1 | > 273 μM-h | – | 62 µM | – | 2.0 | – | – | – |
| O=C(NCCN1CCOCC1)c1cc(N(CCCl)CCCl)c([N+](=O)[O-])cc1[N+](=O)[O-] [Compound 12, N-[2-(morpholino)ethyl][N,N-bis(2-chloroethyl)amino]-2,4-dinitrobenzainide] | 45 | 3700 μM-h | – | 920 µM | – | 3.0 | – | – | – |
| CS(=O)(=O)OCCN(CCOS(C)(=O)=O)c1cc(C(N)=O)c([N+](=O)[O-])cc1[N+](=O)[O-] [Compound 4, 5-[N,N-bis(2-methanesulfonoxyethyl)amino]-2,4-dinitrobenzamide] | 17 | 1200 μM-h | 10.0 | – | – | – | > 200 µM | 99 µM | – |
| C[N+](C)([O-])CCNC(=O)c1cc(N(CCCl)CCCl)c([N+](=O)[O-])cc1[N+](=O)[O-] [Compound 14, N-(N^1,N^1-dimethylaminoethyl) [N,N-bis(2-chloroethyl)amino]-2,4-dinitrobenzamide N^1-oxide] | < 10 | < 14400 μM-h | – | 7300 µM | – | 1.7 | – | – | – |
| NC(=O)c1cc(N(CCBr)CCBr)c([N+](=O)[O-])cc1[N+](=O)[O-] [Compound 2, 5-[N,N-bis(2-bromoethyl)amino]-2,4-dinitrobenzamide] | 20 | 160 μM-h | 32.3 | 57 µM | 10.9 µM | 7.5 | – | – | – |
| O=C(NCC(O)CO)c1cc(N(CCCl)CCCl)c([N+](=O)[O-])cc1[N+](=O)[O-] (centres unmarked) [Compound 17, N-(2,3-dihydroxypropyl)5-[N,N-bis(2-chloroethyl)amino]-2,4-dinitrobenzarnide] | 14 | 3340 μM-h | – | 1790 µM | – | 3.2 | – | – | – |
| CN(C)CCNC(=O)c1cc([N+](=O)[O-])cc([N+](=O)[O-])c1N(CCCl)CCCl [Compound 20, N-(N,N-dimethylaminoethyl) 2-[N,N-bis(2-chloroethyl)amino]-3,5-dinitrobenzamide] | 36 | 1200 μM-h | – | 150 µM | – | 14 | – | – | – |
| CN(C)CCNC(=O)c1c([N+](=O)[O-])ccc(N(CCCl)CCCl)c1[N+](=O)[O-] [Compound 22, N-(N,N-dimethylaminoethyl) 3-[N,N-bis(2-chloroethyl)amino]-2,6-dinitrobenzamide] | 130 | 3600 μM-h | – | 426 µM | – | 3.2 | – | – | – |
| CN(C)C(=O)c1cc(N(CCCl)CCCl)c([N+](=O)[O-])cc1[N+](=O)[O-] [Compound 9, N,N-dimethyl [N,N-bis(2-chloroethyl)amino]-2,4-dinitrobenzainide] | > 20 | > 3500 μM-h | – | 310 µM | – | 1.4 | – | – | – |
| O=C(O)CCNC(=O)c1cc(N(CCCl)CCCl)c([N+](=O)[O-])cc1[N+](=O)[O-] [Compound 15, N-(2-carboxyethyl) 5-[N,N-bis(2-chloroethyl)amino]-2,4-dinitrobenzamide] | 2 | 14000 μM-h | – | 6100 µM | – | 1.1 | – | – | – |
| NC(=O)c1cc(N(CCI)CCI)c([N+](=O)[O-])cc1[N+](=O)[O-] [Compound 3, 5-[N,N-bis(2-iodoethyl)amino]-2,4-dinitrobenzamide] | 42 | 170 μM-h | 73.8 | 34 µM | 15 µM | 2.6 | – | – | – |
| O=C(c1cc(N(CCCl)CCCl)c([N+](=O)[O-])cc1[N+](=O)[O-])N1CCOCC1 [Compound 10, N-morpholino [N,N-bis(2-chloroethyl)amino]-2,4-dinitrobenzamiide] | 1.6 | 156 μM-h | – | 264 µM | – | 23 | – | – | – |
| NS(=O)(=O)c1cc(N(CCCl)CCCl)c([N+](=O)[O-])cc1[N+](=O)[O-] [Compound 18, 5-[N,N-bis(2-chloroethyl)amino]-2,4-dinitrobenzenesulfonamide] | – | – | – | 3 µM | – | – | – | – | – |
| NC(=S)c1cc(N(CCCl)CCCl)c([N+](=O)[O-])cc1[N+](=O)[O-] [Compound 13, 5-[N,N-bis(2-chloroethyl)amino]-2,4-dinitrothiobenzamide] | > 3 | > 60 μM-h | – | > 25 µM | – | > 2 | – | – | – |
| O=C(O)c1cc(N(CCCl)CCCl)c([N+](=O)[O-])cc1[N+](=O)[O-] [Compound 6, 5-[N,N-bis(2-chloroethyl)amino]-2,4-dinitrobenzoicacid] | > 2 | > 30000 μM-h | 0.76 | 10600 µM | 317 µM | 1.5 | – | – | – |
| NC(=O)c1cc([N+](=O)[O-])cc([N+](=O)[O-])c1N(CCCl)CCCl [Compound 19, 2-[N,N-bis(2-chloroethyl)amino]-3,5-dinitrobenzamide] | > 5 | > 300 μM-h | – | > 100 µM | – | ca. 3 | – | – | – |
| NC(=O)c1c([N+](=O)[O-])ccc(N(CCCl)CCCl)c1[N+](=O)[O-] [Compound 21, 3-[N,N-bis(2-chloroethyl)amino]-2,6-dinitrobenzamide] | > 3 | > 300 μM-h | – | > 240 µM | – | > 2 | – | – | – |
| NC(=O)c1cc([N+](=O)[O-])c(N(CCCl)CCCl)c([N+](=O)[O-])c1 [Compound 23, 4-[N,N-bis(2-chloroethyl)amino]-3,5-dinitrobenzamide] | > 1 | > 450 μM-h | – | 97 µM | – | 1.4 | – | – | – |
| Nitroreductase: E. coli nitroreductase (protein, UniProt P38489 1-217, looked up) Oxygen-insensitive NAD(P)H …: MDIISVALKRHSTKAFDASKKLTPEQAEQIKTLLQYSPSSTNSQPWHFIVASTEEGKARVAKSAAGNYVFNERKMLDASHVVVFCAKTAMDDVWLKLVVDQEDADGRFATPEAKAANDKGRKFFADMHRKDLHDDAEWMAKQVYLNVGNFLLGVAALGLDAVPIEGFDAAILDAEFGLKEKGYTSLVVVPVGHHSVEDFNATLPKSRLPQNITLTEV | – | – | – | – | – | – | – | – | 94% |
